Assay results: ChEMBL document CHEMBL1909046, “DrugMatrix in vitro pharmacology data”

How the values were obtained:
[1] = biological target: T1, Polyunsaturated fatty acid lipoxygenase ALOX15 (Oryctolagus cuniculus, UniProt P12530); assay: biochemical; format: tissue-based, Reticulocytes;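 note: inhibition of 15-lipoxygenase enzyme activity measured with linoleic acid as the substrate; in other assays of this panel Not Active means under 50% inhibition at 10 µM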
T1 sequence (P12530 whole entry): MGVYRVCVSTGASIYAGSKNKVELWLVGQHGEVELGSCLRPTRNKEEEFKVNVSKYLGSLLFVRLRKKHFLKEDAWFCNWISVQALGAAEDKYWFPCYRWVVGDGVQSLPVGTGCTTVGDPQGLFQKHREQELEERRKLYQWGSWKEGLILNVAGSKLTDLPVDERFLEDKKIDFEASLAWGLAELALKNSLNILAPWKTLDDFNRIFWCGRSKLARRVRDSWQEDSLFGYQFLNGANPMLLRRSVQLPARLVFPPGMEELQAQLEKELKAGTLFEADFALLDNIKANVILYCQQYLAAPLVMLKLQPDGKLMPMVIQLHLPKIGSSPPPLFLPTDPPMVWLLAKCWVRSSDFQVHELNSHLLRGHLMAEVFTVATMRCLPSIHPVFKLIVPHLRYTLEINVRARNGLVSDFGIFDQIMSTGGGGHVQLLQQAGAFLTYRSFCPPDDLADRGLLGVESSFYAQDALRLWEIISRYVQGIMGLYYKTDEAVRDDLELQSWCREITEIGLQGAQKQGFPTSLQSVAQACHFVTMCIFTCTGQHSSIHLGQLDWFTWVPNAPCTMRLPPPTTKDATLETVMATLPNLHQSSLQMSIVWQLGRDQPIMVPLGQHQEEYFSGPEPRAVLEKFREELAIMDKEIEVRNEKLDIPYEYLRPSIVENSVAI

Thromboxane-A synthase = biological target: T2, Thromboxane-A synthase (Homo sapiens, UniProt P24557); assay: biochemical; format: tissue-based, Platelet;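 note: enzyme inhibition assay with PGH2 supplied as substrate; in other assays of this panel Not Active means under 50% inhibition at 10 µM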
T2 sequence (P24557 whole entry): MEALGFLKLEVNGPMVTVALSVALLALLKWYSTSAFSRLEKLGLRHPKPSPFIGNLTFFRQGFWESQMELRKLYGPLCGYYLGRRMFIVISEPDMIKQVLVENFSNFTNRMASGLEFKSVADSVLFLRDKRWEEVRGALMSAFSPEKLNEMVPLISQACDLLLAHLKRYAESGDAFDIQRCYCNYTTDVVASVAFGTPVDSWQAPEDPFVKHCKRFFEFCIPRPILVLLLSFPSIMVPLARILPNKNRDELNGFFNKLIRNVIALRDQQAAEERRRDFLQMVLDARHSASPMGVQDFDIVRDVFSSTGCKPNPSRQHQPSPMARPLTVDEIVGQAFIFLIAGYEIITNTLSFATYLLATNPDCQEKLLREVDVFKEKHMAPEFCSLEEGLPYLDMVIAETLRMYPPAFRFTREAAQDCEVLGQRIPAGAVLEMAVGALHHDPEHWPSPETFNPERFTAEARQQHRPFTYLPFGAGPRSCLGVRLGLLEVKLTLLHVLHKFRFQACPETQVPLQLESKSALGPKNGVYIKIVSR

[2] = biological target: Epidermal growth factor receptor (Homo sapiens, UniProt P00533); assay: DRUGMATRIX: Protein Tyrosine Kinase, EGF Receptor enzyme inhibition (substrate: Poly(Glu:Tyr)); format: cell-based, Insect cells; details: Not Active = under 50% inhibition at 10 µM
[3] = DRUGMATRIX: Platelet-Derived Growth Factor (PDGF) radioligand binding (ligand: [125I] PDGF); format: cell-based; details: nih3t3; Not Active = under 50% inhibition at 10 µM
[4] = biological target: Mitogen-activated protein kinase 14 (Homo sapiens, UniProt Q16539); set-up: species or system Escherichia coli;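 note: inhibition of p38alpha enzyme activity in a biochemical kinase assay, with myelin basic protein serving as substrate; in other assays of this panel Not Active means under 50% inhibition at 10 µM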
[5] = DRUGMATRIX: GABAA, Flunitrazepam, Central radioligand binding (ligand: [3H] Flunitrazepam); format: cell membranes, Rattus norvegicus, Wistar, Brain, Membrane; details: Not Active = under 50% inhibition at 10 µM
[6] = DRUGMATRIX: Purinergic P2X radioligand binding (ligand: [3H] alpha, beta-Methylene-ATP); format: cell membranes, Oryctolagus cuniculus, New Zealand albino, Urinary bladder, Membrane; details: Not Active = under 50% inhibition at 10 µM

Epidermal growth factor receptor, sequence (P00533 whole entry): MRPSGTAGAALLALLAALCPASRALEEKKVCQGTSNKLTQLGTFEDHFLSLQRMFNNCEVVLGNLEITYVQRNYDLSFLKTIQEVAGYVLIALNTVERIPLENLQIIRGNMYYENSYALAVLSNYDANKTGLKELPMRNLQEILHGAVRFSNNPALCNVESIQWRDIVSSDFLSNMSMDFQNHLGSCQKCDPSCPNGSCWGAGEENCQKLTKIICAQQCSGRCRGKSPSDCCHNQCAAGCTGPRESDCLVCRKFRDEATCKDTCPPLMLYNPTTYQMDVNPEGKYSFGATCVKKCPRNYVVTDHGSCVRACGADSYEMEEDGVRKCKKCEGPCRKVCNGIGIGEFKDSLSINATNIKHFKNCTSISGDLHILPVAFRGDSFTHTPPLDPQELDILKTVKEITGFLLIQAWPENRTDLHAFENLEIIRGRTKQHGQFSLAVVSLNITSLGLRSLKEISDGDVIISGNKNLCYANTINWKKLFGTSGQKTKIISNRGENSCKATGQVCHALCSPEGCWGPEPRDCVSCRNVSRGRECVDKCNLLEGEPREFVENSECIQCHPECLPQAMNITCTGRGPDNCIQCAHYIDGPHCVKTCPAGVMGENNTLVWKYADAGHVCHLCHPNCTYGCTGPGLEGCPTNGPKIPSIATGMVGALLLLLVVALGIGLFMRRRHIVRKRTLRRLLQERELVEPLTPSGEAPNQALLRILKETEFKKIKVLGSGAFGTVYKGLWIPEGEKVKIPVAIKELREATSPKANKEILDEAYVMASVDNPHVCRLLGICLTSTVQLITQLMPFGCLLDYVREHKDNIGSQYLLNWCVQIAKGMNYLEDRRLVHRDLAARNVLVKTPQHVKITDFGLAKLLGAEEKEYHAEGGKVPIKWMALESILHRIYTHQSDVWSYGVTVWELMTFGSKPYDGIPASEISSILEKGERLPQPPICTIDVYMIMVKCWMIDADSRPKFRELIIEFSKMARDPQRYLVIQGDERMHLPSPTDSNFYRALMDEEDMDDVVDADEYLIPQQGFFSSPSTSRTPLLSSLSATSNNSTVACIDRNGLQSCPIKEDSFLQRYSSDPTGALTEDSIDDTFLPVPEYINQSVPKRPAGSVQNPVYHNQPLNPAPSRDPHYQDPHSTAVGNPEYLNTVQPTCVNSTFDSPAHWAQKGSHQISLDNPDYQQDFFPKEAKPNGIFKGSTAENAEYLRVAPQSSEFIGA
Mitogen-activated protein kinase 14, sequence (Q16539 whole entry): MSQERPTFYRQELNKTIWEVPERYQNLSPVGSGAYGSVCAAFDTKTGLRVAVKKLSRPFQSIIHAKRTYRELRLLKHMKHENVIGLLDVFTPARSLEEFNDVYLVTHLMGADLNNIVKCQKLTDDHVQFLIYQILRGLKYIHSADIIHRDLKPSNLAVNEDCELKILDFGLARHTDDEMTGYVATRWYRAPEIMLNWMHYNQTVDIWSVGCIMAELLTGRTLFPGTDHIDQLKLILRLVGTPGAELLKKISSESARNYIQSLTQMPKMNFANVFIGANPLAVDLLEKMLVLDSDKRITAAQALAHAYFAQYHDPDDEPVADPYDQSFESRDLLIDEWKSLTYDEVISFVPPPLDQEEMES

Row | SMILES | IC50 ([1]; reticulocytes) | IC50 (Thromboxane-A synthase; platelet) | IC50 ([2]; insect cells) | IC50 [3] | Ki [3] | IC50 [4] | IC50 [5] | Ki [5] | IC50 [6] | Ki [6] | IC50 ([1]; read-out: IC50) [µM] | IC50 (Thromboxane-A synthase; read-out: IC50) [µM] | IC50 ([5]; read-out: IC50) [µM] | Ki ([5]; read-out: Ki) [µM] | IC50 ([2]; read-out: IC50) [µM]
1 | N[C@@H](Cc1ccc(N(CCCl)CCCl)cc1)C(=O)O | Not Active | Not Active | Not Active | Not Active | Not Active | Not Active | Not Active | Not Active | Not Active | Not Active |  |  |  |  | 
2 | CC(C)N1CCN(c2ccc(OCC3COC(Cn4cncn4)(c4ccc(Cl)cc4Cl)O3)cc2)CC1 (stereo not given) [TERCONAZOLE] |  | Not Active | Not Active |  |  | Not Active | Not Active | Not Active | Not Active | Not Active | 2.45 |  |  |  | 
3 | Cc1nc2n(c(=O)c1CCN1CCC(c3noc4cc(F)ccc34)CC1)CCCC2 [RISPERIDONE] | Not Active | Not Active | Not Active |  |  | Not Active |  |  |  |  |  |  |  |  | 
4 | N[C@@H]1[C@H]2CN(c3nc4c(cc3F)c(=O)c(C(=O)O)cn4-c3ccc(F)cc3F)C[C@@H]12 [TROVAFLOXACIN] | Not Active |  |  | Not Active | Not Active | Not Active | Not Active | Not Active | Not Active | Not Active |  | 4.02 |  |  | 
5 | O=c1ncn2nc(Sc3ccc(F)cc3F)ccc2c1-c1c(Cl)cccc1Cl [NEFLAMAPIMOD] | Not Active | Not Active | Not Active | Not Active | Not Active |  |  |  | Not Active | Not Active |  |  | 12 | 9.77 | 
6 | CCCCc1oc2ccccc2c1C(=O)c1cc(I)c(OCCN(CC)CC)c(I)c1 [AMIODARONE] | Not Active | Not Active | Not Active |  |  | Not Active |  |  |  |  |  |  |  |  | 
7 | CC[C@]1(O)C[C@H]2CN(CCc3c([nH]c4ccccc34)[C@@](C(=O)OC)(c3cc4c(cc3OC)N(C=O)[C@H]3[C@@](O)(C(=O)OC)[C@H](OC(C)=O)[C@]5(CC)C=CCN6CC[C@]43[C@@H]65)C2)C1 [VINCRISTINE] | Not Active | Not Active | Not Active | Not Active | Not Active | Not Active | Not Active | Not Active | Not Active | Not Active |  |  |  |  | 
8 | CO[C@H]1/C=C/O[C@@]2(C)Oc3c(C)c(O)c4c(O)c(c(/C=N/N5CCN(C)CC5)c(O)c4c3C2=O)NC(=O)/C(C)=C\C=C\[C@H](C)[C@H](O)[C@@H](C)[C@@H](O)[C@@H](C)[C@H](OC(C)=O)[C@@H]1C [RIFAMPIN] |  | Not Active | Not Active | Not Active | Not Active | Not Active | Not Active | Not Active | Not Active | Not Active | 2.95 |  |  |  | 
9 | Cc1noc(NS(=O)(=O)c2ccc(N)cc2)c1C [SULFISOXAZOLE] | Not Active | Not Active | Not Active | Not Active | Not Active | Not Active | Not Active | Not Active | Not Active | Not Active |  |  |  |  | 
10 | NS(=O)(=O)c1cc2c(cc1Cl)NC(C(Cl)Cl)NS2(=O)=O (stereo not given) [TRICHLORMETHIAZIDE] | Not Active | Not Active | Not Active | Not Active | Not Active | Not Active | Not Active | Not Active | Not Active | Not Active |  |  |  |  | 
11 | COc1nc(C)nc(Cl)c1NC1=NCCN1 [MOXONIDINE] | Not Active | Not Active | Not Active | Not Active | Not Active | Not Active | Not Active | Not Active | Not Active | Not Active |  |  |  |  | 
12 | Nc1nc2ccc(OC(F)(F)F)cc2s1 [RILUZOLE] | Not Active | Not Active | Not Active | Not Active | Not Active | Not Active | Not Active | Not Active | Not Active | Not Active |  |  |  |  | 
13 | N[C@@H](Cc1cc(I)c(Oc2ccc(O)c(I)c2)c(I)c1)C(=O)O [LIOTHYRONINE] | Not Active | Not Active | Not Active |  |  | Not Active |  |  |  |  |  |  |  |  | 
14 | C[C@@H]1CN(c2c(F)c(N)c3c(=O)c(C(=O)O)cn(C4CC4)c3c2F)C[C@H](C)N1 [SPARFLOXACIN] | Not Active | Not Active | Not Active | Not Active | Not Active | Not Active | Not Active | Not Active | Not Active | Not Active |  |  |  |  | 
15 | CC1(C)O[C@@H]2C[C@H]3[C@@H]4CCC5=CC(=O)C=C[C@]5(C)[C@@]4(F)[C@@H](O)C[C@]3(C)[C@]2(C(=O)CO)O1 [TRIAMCINOLONE ACETONIDE] | Not Active | Not Active | Not Active | Not Active | Not Active | Not Active | Not Active | Not Active | Not Active | Not Active |  |  |  |  | 
16 | CSc1ccc(/C=C2/C(C)=C(CC(=O)O)c3cc(F)ccc32)cc1 [SULINDAC SULFIDE] | Not Active | Not Active |  | Not Active | Not Active | Not Active | Not Active | Not Active | Not Active | Not Active |  |  |  |  | 24
17 | Nc1c2c(nc3ccccc13)CCCC2 [TACRINE] | Not Active | Not Active | Not Active | Not Active | Not Active | Not Active | Not Active | Not Active | Not Active | Not Active |  |  |  |  | 
18 | CN1CCN(CCCN2c3ccccc3Sc3ccc(Cl)cc32)CC1 [PROCHLORPERAZINE] | Not Active | Not Active | Not Active |  |  | Not Active |  |  |  |  |  |  |  |  | 
19 | N[C@@H](Cc1ccc(O)c(O)c1)C(=O)O [LEVODOPA] |  | Not Active |  | Not Active | Not Active | Not Active | Not Active | Not Active | Not Active | Not Active | 2.26 |  |  |  | 2.88
20 | O=NN(CCCl)C(=O)NC1CCCCC1 [LOMUSTINE] | Not Active | Not Active | Not Active | Not Active | Not Active | Not Active | Not Active | Not Active | Not Active | Not Active |  |  |  |  | 
21 | Cc1c(C)c2c(c(C)c1O)CCC(C)(COc1ccc(CC3SC(=O)NC3=O)cc1)O2 (stereo not given) [TROGLITAZONE] | Not Active |  | Not Active | Not Active | Not Active | Not Active | Not Active | Not Active | Not Active | Not Active |  | 2.97 |  |  | 
22 | CCOC(=O)N1CCC(=C2c3ccc(Cl)cc3CCc3cccnc32)CC1 [LORATADINE] | Not Active | Not Active | Not Active | Not Active | Not Active | Not Active | Not Active | Not Active | Not Active | Not Active |  |  |  |  | 
23 | Cc1cccc(N(C)C(=S)Oc2ccc3ccccc3c2)c1 [TOLNAFTATE] | Not Active | Not Active | Not Active | Not Active | Not Active | Not Active | Not Active | Not Active | Not Active | Not Active |  |  |  |  | 
24 | CC/C(=C(\c1ccccc1)c1ccc(OCCN(C)C)cc1)c1ccccc1 [TAMOXIFEN] | Not Active |  |  |  |  | Not Active |  |  |  |  |  | 0.916 |  |  | 3.55
25 | N#CC(C#N)=Cc1ccc(O)c(O)c1 [TYRPHOSTIN 23] | Not Active | Not Active |  | Not Active | Not Active | Not Active | Not Active | Not Active | Not Active | Not Active |  |  |  |  | 
